Measured values as given in US9549932B2, “2-(morpholin-4-yl)-1,7-naphthyridines” (BAYER PHARMA AKTIENGESELLSCHAFT, priority 2014, dated 2017).
pIC50: −log10 of the molar value.

biological target: full-length human ATR protein (Homo sapiens (Human), UniProt Q13535); assay: Binding assay ATR (TR-FRET tracer displacement); details: tracer A, TR-FRET; read-out: ATR binding (tracer A) IC50
Method in brief: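 Full-length human GST-ATR co-purified with ATRIP, pre-complexed 30 min at 22 °C with anti-GST-Tb antibody, then pre-bound with compound 10 min. Tracer A or B added (2 µl of 100 nM solution), 30 min at 22 °C.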

Sequence of full-length human ATR protein (Q13535 other isoform, or with tags, fused parts or gaps): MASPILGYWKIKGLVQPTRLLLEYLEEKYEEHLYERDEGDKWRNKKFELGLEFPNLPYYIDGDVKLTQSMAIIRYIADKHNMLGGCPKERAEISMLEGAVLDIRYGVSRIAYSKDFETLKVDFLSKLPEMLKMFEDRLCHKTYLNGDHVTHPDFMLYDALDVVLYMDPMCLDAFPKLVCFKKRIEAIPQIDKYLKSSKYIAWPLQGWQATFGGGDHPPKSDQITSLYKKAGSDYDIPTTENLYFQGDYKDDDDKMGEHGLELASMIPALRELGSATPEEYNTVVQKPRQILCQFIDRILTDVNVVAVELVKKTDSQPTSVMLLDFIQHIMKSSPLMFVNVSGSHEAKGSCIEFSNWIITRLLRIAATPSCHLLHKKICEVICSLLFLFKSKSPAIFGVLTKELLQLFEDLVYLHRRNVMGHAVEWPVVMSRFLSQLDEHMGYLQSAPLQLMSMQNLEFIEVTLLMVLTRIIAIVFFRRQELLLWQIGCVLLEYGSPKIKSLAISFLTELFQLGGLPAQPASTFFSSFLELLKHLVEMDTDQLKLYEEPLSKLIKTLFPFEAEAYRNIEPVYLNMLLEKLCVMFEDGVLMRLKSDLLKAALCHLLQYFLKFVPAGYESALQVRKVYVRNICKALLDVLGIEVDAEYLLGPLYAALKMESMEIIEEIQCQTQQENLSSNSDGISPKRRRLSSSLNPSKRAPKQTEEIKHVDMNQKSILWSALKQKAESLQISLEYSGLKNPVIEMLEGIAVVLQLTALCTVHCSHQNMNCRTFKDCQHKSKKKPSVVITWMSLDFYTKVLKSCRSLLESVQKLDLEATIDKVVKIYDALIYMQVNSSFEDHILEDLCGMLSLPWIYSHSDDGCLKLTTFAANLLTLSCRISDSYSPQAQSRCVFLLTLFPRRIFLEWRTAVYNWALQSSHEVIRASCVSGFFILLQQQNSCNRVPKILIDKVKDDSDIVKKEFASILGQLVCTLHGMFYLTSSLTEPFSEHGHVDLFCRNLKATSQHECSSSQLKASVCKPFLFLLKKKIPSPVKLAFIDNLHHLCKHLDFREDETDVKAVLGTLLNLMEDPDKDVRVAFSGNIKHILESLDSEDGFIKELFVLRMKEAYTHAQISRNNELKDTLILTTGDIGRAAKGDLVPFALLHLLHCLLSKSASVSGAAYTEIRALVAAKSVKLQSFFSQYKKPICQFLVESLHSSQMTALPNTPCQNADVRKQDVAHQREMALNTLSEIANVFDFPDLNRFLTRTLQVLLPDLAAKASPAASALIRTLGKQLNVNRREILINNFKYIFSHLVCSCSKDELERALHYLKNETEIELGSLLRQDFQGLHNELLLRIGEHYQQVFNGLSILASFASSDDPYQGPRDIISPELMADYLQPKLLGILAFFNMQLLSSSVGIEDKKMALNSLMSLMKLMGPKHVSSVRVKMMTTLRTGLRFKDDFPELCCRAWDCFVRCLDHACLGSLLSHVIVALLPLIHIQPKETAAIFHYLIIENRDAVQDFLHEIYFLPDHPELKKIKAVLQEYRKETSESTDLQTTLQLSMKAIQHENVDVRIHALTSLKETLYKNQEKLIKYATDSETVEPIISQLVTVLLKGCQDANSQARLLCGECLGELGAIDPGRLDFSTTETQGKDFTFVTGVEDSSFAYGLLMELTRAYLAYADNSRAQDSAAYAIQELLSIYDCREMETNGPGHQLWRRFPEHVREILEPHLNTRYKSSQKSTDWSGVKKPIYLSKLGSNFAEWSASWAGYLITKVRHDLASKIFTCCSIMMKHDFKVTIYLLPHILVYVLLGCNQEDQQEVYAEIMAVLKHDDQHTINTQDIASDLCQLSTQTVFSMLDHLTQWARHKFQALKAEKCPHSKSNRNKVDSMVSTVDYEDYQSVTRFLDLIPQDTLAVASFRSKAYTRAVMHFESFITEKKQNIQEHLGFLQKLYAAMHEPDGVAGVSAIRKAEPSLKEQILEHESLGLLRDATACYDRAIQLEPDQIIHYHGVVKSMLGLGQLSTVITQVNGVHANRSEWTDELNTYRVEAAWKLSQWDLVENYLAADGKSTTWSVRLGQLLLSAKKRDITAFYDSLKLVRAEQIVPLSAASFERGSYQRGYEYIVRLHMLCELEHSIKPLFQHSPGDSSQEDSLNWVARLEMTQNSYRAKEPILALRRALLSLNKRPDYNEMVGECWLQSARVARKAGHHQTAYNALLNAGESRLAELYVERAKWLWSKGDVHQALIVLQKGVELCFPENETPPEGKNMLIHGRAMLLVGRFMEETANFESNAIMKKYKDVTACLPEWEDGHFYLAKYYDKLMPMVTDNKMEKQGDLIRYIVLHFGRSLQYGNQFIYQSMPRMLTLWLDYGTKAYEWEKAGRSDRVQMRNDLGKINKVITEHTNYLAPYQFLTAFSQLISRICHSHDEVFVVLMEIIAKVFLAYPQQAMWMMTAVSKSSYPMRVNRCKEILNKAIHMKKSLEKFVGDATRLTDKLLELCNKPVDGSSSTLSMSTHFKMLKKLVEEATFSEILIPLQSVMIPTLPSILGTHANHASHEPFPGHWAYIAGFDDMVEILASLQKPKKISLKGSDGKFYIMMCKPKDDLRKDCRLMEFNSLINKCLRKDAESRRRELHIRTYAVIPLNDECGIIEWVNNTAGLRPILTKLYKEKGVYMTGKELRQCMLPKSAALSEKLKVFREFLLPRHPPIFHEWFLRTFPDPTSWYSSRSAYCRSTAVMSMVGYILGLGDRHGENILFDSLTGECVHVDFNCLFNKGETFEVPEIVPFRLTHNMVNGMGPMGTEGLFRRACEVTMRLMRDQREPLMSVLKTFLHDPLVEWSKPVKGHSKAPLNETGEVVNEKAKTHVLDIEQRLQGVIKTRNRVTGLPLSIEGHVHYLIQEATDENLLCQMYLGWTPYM
Sequence of full-length human ATR protein (Q8WXE1 other isoform, or with tags, fused parts or gaps partner): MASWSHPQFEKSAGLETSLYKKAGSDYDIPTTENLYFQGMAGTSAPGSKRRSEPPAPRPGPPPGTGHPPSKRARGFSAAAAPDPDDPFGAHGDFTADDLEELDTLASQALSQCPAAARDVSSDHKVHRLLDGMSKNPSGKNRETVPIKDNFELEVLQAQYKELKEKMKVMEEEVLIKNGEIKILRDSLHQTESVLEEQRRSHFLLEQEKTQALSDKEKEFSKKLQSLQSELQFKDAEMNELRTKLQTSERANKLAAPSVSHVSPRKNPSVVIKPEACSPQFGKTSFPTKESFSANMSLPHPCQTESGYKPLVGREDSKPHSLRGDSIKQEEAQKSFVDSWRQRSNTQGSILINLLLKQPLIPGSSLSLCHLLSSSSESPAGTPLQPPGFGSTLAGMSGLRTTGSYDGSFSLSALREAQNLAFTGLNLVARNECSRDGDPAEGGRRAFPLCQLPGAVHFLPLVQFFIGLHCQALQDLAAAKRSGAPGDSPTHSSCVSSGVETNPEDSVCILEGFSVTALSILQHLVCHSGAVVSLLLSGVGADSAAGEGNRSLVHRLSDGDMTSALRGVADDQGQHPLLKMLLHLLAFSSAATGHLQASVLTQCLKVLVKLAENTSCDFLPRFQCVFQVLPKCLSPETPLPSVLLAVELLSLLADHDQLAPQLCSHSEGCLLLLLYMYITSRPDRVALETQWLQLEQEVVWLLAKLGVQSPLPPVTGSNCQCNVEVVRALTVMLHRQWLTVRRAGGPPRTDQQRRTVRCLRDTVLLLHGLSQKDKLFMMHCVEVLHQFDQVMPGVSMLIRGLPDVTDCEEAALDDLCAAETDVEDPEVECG

SMILES	pIC50
C[C@@H]1COCCN1c1cc(-c2[nH]nnc2C2CC2)c2ccnc(-c3ccn[nH]3)c2n1 [Example 194, 4-(4-cyclopropyl-1H-1,2,3-triazol-5-yl)-2-[(3R)-3-methylmorpholin-4-yl]-8-(1H-pyrazol-5-yl)-1,7-naphthyridine]	7.42
COc1cc(N2CCOCC2)nc2c(-c3cc[nH]n3)nccc12 [Example 44, 4-methoxy-2-(morpholin-4-yl)-8-(1H-pyrazol-3-yl)-[1,7]naphthyridine]	6.27
c1cc(-c2nccc3c(-c4ccnc5[nH]ccc45)cc(N4CCOCC4)nc23)[nH]n1 [Example 401, 2-(morpholin-4-yl)-8-(1H-pyrazol-5-yl)-4-(1H-pyrrolo[2,3-b]pyridin-4-yl)-1,7-naphthyridine]	7.06
C[C@@H]1COCCN1c1cc(-c2ccnc3[nH]ccc23)c2ccnc(-c3ccn[nH]3)c2n1 [Example 104, 2-[(3R)-3-methylmorpholin-4-yl]-8-(1H-pyrazol-5-yl)-4-(1H-pyrrolo[2,3-b]pyridin-4-yl)-1,7-naphthyridine]	7.85
C[C@@H]1COCCN1c1cc(-c2cccc(S(C)(=O)=O)c2)c2ccnc(-c3cc[nH]n3)c2n1 [Example 28, 4-(3-methanesulphonylphenyl)-2-((R)-3-methylmorpholin-4-yl)-8-(2H-pyrazol-3-yl)-[1,7]naphthyridine]	7.75
O=C1CN(c2cc(N3CCOCC3)nc3c(-c4ccn[nH]4)nccc23)CCN1 [Example 176, 4-[2-(morpholin-4-yl)-8-(1H-pyrazol-5-yl)-1,7-naphthyridin-4-yl]piperazin-2-one]	6.65
Nc1ccccc1-c1cc(N2CCOCC2)nc2c(-c3ccn[nH]3)nccc12 [Example 343, 2-[2-(morpholin-4-yl)-8-(1H-pyrazol-5-yl)-1,7-naphthyridin-4-yl]aniline]	7.70
C[C@@H]1COCCN1c1cc(-c2ccnn2CCF)c2ccnc(-c3ccn[nH]3)c2n1 [Example 159, 4-[1-(2-fluoroethyl)-1H-pyrazol-5-yl]-2-[(3R)-3-methylmorpholin-4-yl]-8-(1H-pyrazol-5-yl)-1,7-naphthyridine]	7.78
O=C1OCCC1Oc1cc(N2CCOCC2)nc2c(-c3ccn[nH]3)nccc12 (stereo not shown) [Example 47, 3-{[2-(morpholin-4-yl)-8-(1H-pyrazol-5-yl)-1,7-naphthyridin-4-yl]oxy}dihydrofuran-2(3H)-one]	5.86
CN(C)C(=O)c1cccc(-c2cc(N3CCOCC3)nc3c(-c4ccn[nH]4)nccc23)c1 [Example 288, N,N-dimethyl-3-[2-(morpholin-4-yl)-8-(1H-pyrazol-5-yl)-1,7-naphthyridin-4-yl]benzamide]	6.46
Clc1cccc(-c2cc(N3CCOCC3)nc3c(-c4ccn[nH]4)nccc23)c1 [Example 304, 4-(3-chlorophenyl)-2-(morpholin-4-yl)-8-(1H-pyrazol-5-yl)-1,7-naphthyridine]	7.24
C[C@@H]1COCCN1c1cc(-c2ccccc2N)c2ccnc(-c3ccn[nH]3)c2n1 [Example 71, 2-{2-[(3R)-3-methylmorpholin-4-yl]-8-(1H-pyrazol-5-yl)-1,7-naphthyridin-4-yl]aniline]	8.25
C[C@@H]1COCCN1c1cc(-c2cnn(CCO)c2)c2ccnc(-c3ccn[nH]3)c2n1 [Example 260, 2-(4-{2-[(3R)-3-methylmorpholin-4-yl]-8-(1H-pyrazol-5-yl)-1,7-naphthyridin-4-yl}-1H-pyrazol-1-yl)ethanol]	7.55
Cc1cnn(C)c1-c1cc(N2CCOC[C@H]2C)nc2c(-c3ccn[nH]3)nccc12 [Example 114, 4-(1,4-dimethyl-1H-pyrazol-5-yl)-2-[(3R)-3-methylmorpholin-4-yl]-8-(1H-pyrazol-5-yl)-1,7-naphthyridine]	8.13
C[C@@H]1COCCN1c1cc(C(N)=O)c2ccnc(-c3cc[nH]n3)c2n1 [Example 285, 2-[(3R)-3-methylmorpholin-4-yl]-8-(1H-pyrazol-3-yl)-1,7-naphthyridine-4-carboxamide]	6.29
COC(=O)c1cc(-c2cc(N3CCOCC3)nc3c(-c4ccn[nH]4)nccc23)cs1 [Example 403, methyl 4-[2-(morpholin-4-yl)-8-(1H-pyrazol-5-yl)-1,7-naphthyridin-4-yl]thiophene-2-carboxylate]	6.71
OCC1CCN(c2cc(N3CCOCC3)nc3c(-c4ccn[nH]4)nccc23)CC1 [Example 429, {1-[2-(morpholin-4-yl)-8-(1H-pyrazol-5-yl)-1,7-naphthyridin-4-yl]piperidin-4-yl}methanol]	7.35
Fc1ccc(-c2cc(N3CCOCC3)nc3c(-c4ccn[nH]4)nccc23)c(F)n1 [Example 366, 4-(2,6-difluoropyridin-3-yl)-2-(morpholin-4-yl)-8-(1H-pyrazol-5-yl)-1,7-naphthyridine]	7.28
C[C@@H]1COCCN1c1cc(-c2ccn(CCF)n2)c2ccnc(-c3ccn[nH]3)c2n1 [Example 158, 4-[1-(2-fluoroethyl)-1H-pyrazol-3-yl]-2-[(3R)-3-methylmorpholin-4-yl]-8-(1H-pyrazol-5-yl)-1,7-naphthyridine]	7.87
COc1ccc(F)c(-c2cc(N3CCOCC3)nc3c(-c4ccn[nH]4)nccc23)c1 [Example 338, 4-(2-fluoro-5-methoxyphenyl)-2-(morpholin-4-yl)-8-(1H-pyrazol-5-yl)-1,7-naphthyridine]	6.99
Clc1ccccc1-c1cc(N2CCOCC2)nc2c(-c3ccn[nH]3)nccc12 [Example 333, 4-(2-chlorophenyl)-2-(morpholin-4-yl)-8-(1H-pyrazol-5-yl)-1,7-naphthyridine]	7.60
COc1ccc(-c2cc(N3CCOC[C@H]3C)nc3c(-c4ccn[nH]4)nccc23)cn1 [Example 95, 4-(6-methoxypyridin-3-yl)-2-[(3R)-3-methylmorpholin-4-yl]-8-(1H-pyrazol-5-yl)-1,7-naphthyridine]	7.95
NC(=O)[C@H]1CCCN1c1cc(N2CCOCC2)nc2c(-c3ccn[nH]3)nccc12 (stereo in doubt) [Example 428, 1-[2-(morpholin-4-yl)-8-(1H-pyrazol-5-yl)-1,7-naphthyridin-4-yl]-prolinamide]	7.16
C[C@@H]1COCCN1c1cc(N=S(C)(=O)c2ccccc2F)c2ccnc(-c3ccn[nH]3)c2n1 (single isomer, unassigned) [Example 141]	6.41
OC1CCN(c2cc(N3CCOCC3)nc3c(-c4ccn[nH]4)nccc23)CC1 [Example 409, 1-[2-(morpholin-4-yl)-8-(1H-pyrazol-5-yl)-1,7-naphthyridin-4-yl]piperidin-4-ol]	6.86
CS(=O)(=O)Nc1ccccc1-c1cc(N2CCOCC2)nc2c(-c3ccn[nH]3)nccc12 [Example 322, N-{2-[2-(morpholin-4-yl)-8-(1H-pyrazol-5-yl)-1,7-naphthyridin-4-yl]phenyl}methanesulfonamide]	7.09
CS(=O)(=O)Cc1cc(N2CCOCC2)nc2c(-c3ccn[nH]3)nccc12 [Example 37, 4-methanesulphonylmethyl-2-morpholin-4-yl-8-(2H-pyrazol-3-yl)-[1,7]naphthyridine]	6.77
C[C@@H]1COCCN1c1cc(-c2ccnc(N3CCOCC3)c2F)c2ccnc(-c3ccn[nH]3)c2n1 [Example 223, 4-[3-fluoro-2-(morpholin-4-yl)pyridin-4-yl]-2-[(3R)-3-methylmorpholin-4-yl]-8-(1H-pyrazol-5-yl)-1,7-naphthyridine]	6.91

same assay, conditions: tracer B, TR-FRET; read-out: ATR binding (tracer B) IC50

SMILES	pIC50
COc1cc(N2CCOCC2)nc2c(-c3cc[nH]n3)nccc12 [Example 44, 4-methoxy-2-(morpholin-4-yl)-8-(1H-pyrazol-3-yl)-[1,7]naphthyridine]	6.49
C[C@@H]1COCCN1c1cc(-c2cccc(S(C)(=O)=O)c2)c2ccnc(-c3cc[nH]n3)c2n1 [Example 28, 4-(3-methanesulphonylphenyl)-2-((R)-3-methylmorpholin-4-yl)-8-(2H-pyrazol-3-yl)-[1,7]naphthyridine]	8.08
CS(=O)(=O)Cc1cc(N2CCOCC2)nc2c(-c3ccn[nH]3)nccc12 [Example 37, 4-methanesulphonylmethyl-2-morpholin-4-yl-8-(2H-pyrazol-3-yl)-[1,7]naphthyridine]	6.90
